A short description of data set [1]: Ocular inflammation by slit-lamp biomicroscopy. Format: in vivo, cynomolgus monkeys (Macaca fascicularis). Particulars: Example 1; 5 topical treatments, 5 μg (2MD 6 μg). The protocol:
(§1) The intraocular pressure (IOP) was determined with a “minified” Goldmann applanation tonometer [Kaufman, 1980] using HALF AND HALF™ creamer solution (Borden) as the tear film indicator [Croft, 1997] with the monkey lying prone in a head holder and the eyes positioned 4 to 8 cm above the heart. All monkeys were examined by slit-lamp before the first IOP measurement in each protocol. For each eye, two or three IOP measurements were averaged as a baseline.
(§2) On the 3th day, prior to the 5th treatment, baseline IOP, biomicroscopy and MAP were determined. Preliminary studies indicated an effect was observed after these treatments but not after a single treatment. Following the 5th dose, IOP was measured at 1, 2, 3, 4, 5, 6, 7, 8, 12 (if possible), 24, and sometimes 48 hr. Biomicroscopy was done at 1, 3, 6, 24 and sometimes 48 hr. MAP on day 3 (some protocols) was determined at 1, 2, 3, 4, 5, 6, 7, 8, 24 and sometimes 48 hr if possible. Blood samples after the 5th treatment were collected at 6, 24, and sometimes 48 hr. For some protocols, IOP was also measured prior to each treatment; MAP was measured prior to the morning treatment; blood was collected prior to the afternoon treatment. Subsequent screening protocols will not include the MAP and blood collections and will only measure IOP at baseline and prior to and for 1-6 hr after the 5th treatment.
Baseline pretreatment IOP was determined by Goldmann applanation tonometry [Kaufman, 1980] with […] used as a tear film indicator [Croft, 1997]. Two baseline IOP measurements were taken 5 minutes apart. Monkeys were then treated topically with 5 μl of 1,25-dihydroxyvitamin D3 (1,25-(OH)2D3) (0.1-5 μg) to one eye and vehicle (propylene glycol) to the opposite eye twice a day for 5 treatments total. […] IOP was also measured prior to the afternoon treatment. On the third day, IOP was measured prior to the morning treatment. Following the fifth treatment, IOP was measured hourly for 8 hours and, in some cases, also at 12, 24, and 48 hours. […]

Data set [2] concerns eyes of ocular normotensive cynomolgus monkeys. Kind of data set: Intraocular pressure (IOP) by Goldmann applanation tonometry after 5 twice-daily unilateral topical treatments. Format: in vivo, cynomolgus monkeys (Macaca fascicularis). The settings on record: Example 1; for rank order of ocular hypotensive effect: 5 uniocular topical treatments at the same dose; for IOP after the 5th treatment / IOP prior to the 5th treatment compared with baseline: AGR 5 μg n=4, 2MD 6 μg n=8; for IOP prior to the 5th treatment compared with baseline: both treated and control eye. Here is the method:
Ocular normotensive adult cynomolgus monkeys (Macaca fascicularis), of either sex, weighing 3-7 kg were anesthetized with i.m. ketamine HCl (3-25 mg/kg, supplemented with 1-10 mg/kg) for IOP and topical drop administration. All monkeys were free of any ocular abnormalities according to slit lamp biomicroscopy at the time measurements were taken. The monkeys were provided by the Primate Center at the University of Wisconsin-Madison. All experiments were done in accordance with the ARVO Statement on the Use of Animals in Ophthalmic and Vision Research.
as §1
Under ketamine anesthesia (KETAJECT™, Phoenix Pharmaceutical, St Joseph, Mo. (3-25 mg/kg i.m., supplemented with 1-10 mg/kg i.m. as needed) baseline IOP was determined, usually between 7:30 and 9 am (2 readings, 5 minutes apart; if IOP baseline measurements were not within 2-3 mm Hg of each other, a 3rd reading was taken 5 min later). Baseline IOP was at least 15 mmHg if possible. A baseline blood sample was taken from the femoral artery or vein, or sometimes the brachial vein (1-2 ml). This was allowed to clot and then spun down (3000 rpm for 10 min, Damon/IEC NH-SII centrifuge) and the serum removed and frozen at −20 C for no more than 1 week. Baseline systolic, diastolic and mean arterial pressure as well as heart rate were recorded with the Dinamap monitor from a cuff placed around the arm or the leg.
After baseline measurements, the monkey was place supine with the eye pointing up and the eyelid held open. A 5 μl drop of test material or vehicle was delivered to opposite eyes. The eyelid was held open for at least 30 sec and the eye was maintained in the upward position for an additional 30 sec. The monkey was then returned to its cage and allowed to wake up. In the afternoon, at least 6 hours after the morning treatment, another treatment was administered. On the second day, dosing was repeated in the am and pm.
as §2
Adult cynomolgus monkeys (Macaca fascicularis) of either sex were anesthetized with intramuscular ketamine HCl (10 mg/kg initial, 5 mg/kg supplemental). Baseline pretreatment IOP was determined by Goldmann applanation tonometry [Kaufman, 1980] with […] used as a tear film indicator [Croft, 1997]. Two baseline IOP measurements were taken 5 minutes apart. […]

Each structure is given as a SMILES string. “Also recorded” adds a separate entry of the source.

Consider `C=C1[C@H](O)CC(=C/C=C2\CCC[C@]3(C)[C@@H]([C@@H](C)CCCC(C)(C)O)CC[C@@H]23)C[C@H]1O` [2MD, 2-methylene-19-nor-(20S)-1α,25-dihydroxyvitamin D3], for which the ocular inflammation result in data set [1] was “no ocular inflammation at any time-point”. For the same compound, in data set [2], the “rank order of ocular hypotensive effect” value is 1,25(OH)2D3>2MD>AGR; the “IOP after the 5th treatment” value is “gradually decreased over the next 8 hours similar to the diurnal decline seen with vehicle alone; also recorded: small drug effect at 6 and 7 hours”; the “IOP prior to the 5th treatment compared with baseline” value is “no different than at baseline”.

On to `CC(CCCC(C)(C)O)C1CCC2C(=CC=C3CC(O)C(=CCCO)C(O)C3)CCCC21C` (stereo not drawn) [AGR, 2-(3′-hydroxypropylidene)-19-nor-1α,25-dihydroxyvitamin D3], for which, in data set [1], the ocular inflammation entry was “no ocular inflammation at any time-point”. Further, the “IOP in treated eye compared with control eye” value in data set [2] (5 μg (2MD 6 μg) in 5 μl propylene glycol one eye, vehicle opposite eye) is “no difference between the eyes at any time-point”. In addition, in data set [2], the “rank order of ocular hypotensive effect” value was 1,25(OH)2D3>2MD>AGR, the “IOP after the 5th treatment” value was “not significantly decreased in the treated eye except at the 3 hr time point” and the “IOP prior to the 5th treatment compared with baseline” value was “no different than at baseline”. Further, in data set [2] (AGR 5 μg in opposite eye), the “IOP in the control (vehicle, contralateral) eye after the 5th treatment” value was “no change in IOP in the control eye”.
